Experiments:
COX1 = COX1 (Homo sapiens, UniProt P23219); test: Mini-profiling panel, non-kinase enzyme; format: biochemical; conditions: Non-Kinase Enzymes; read-out: COX1 Inhibitor IC50
LCK = LCK (Homo sapiens, UniProt P06239); test: Mini-profiling panel, kinase; format: biochemical; conditions: Kinases; read-out: LCK Inhibitor IC50
HTR3A = HTR3A (Homo sapiens, UniProt P46098); test: Mini-profiling panel, ion channel; format: cell-based
Procedure: (§1) Further insight into selectivity was evaluated in a functional panel of 47 representative targets closely related to human life activities, including G protein‐coupled receptors, transporters, ion channels, kinases, nuclear hormone receptor targets, and nonkinase enzymes (Table S3).

KvLQT1/mink = KvLQT1/mink (Homo sapiens, UniProt P51787); test: Mini-profiling panel, ion channel; format: cell-based
KvLQT1/mink, sequence (P51787 whole entry): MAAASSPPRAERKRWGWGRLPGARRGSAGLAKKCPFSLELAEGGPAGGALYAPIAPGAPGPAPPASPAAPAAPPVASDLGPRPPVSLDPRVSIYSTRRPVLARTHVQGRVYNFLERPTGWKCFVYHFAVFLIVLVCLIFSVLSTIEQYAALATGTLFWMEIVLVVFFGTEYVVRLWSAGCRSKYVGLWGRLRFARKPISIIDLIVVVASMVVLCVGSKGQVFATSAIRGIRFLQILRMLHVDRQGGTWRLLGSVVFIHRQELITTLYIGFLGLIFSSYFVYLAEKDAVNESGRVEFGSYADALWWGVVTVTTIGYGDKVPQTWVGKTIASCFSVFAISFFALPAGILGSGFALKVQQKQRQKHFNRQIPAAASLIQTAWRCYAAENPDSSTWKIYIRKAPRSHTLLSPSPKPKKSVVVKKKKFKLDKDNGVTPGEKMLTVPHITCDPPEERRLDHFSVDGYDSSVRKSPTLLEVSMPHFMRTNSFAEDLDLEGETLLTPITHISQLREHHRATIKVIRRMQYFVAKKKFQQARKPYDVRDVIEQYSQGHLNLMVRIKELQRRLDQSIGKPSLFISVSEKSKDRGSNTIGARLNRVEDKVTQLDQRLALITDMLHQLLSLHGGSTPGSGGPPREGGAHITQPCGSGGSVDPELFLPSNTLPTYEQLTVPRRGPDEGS
Procedure: as §1

NMDAR (1A/2B) = NMDAR (1A/2B) (Homo sapiens, UniProt Q05586+Q13224); test: Mini-profiling panel, ion channel; format: cell-based
NMDAR (1A/2B), sequence (Q13224 27-1484, other chains not shown): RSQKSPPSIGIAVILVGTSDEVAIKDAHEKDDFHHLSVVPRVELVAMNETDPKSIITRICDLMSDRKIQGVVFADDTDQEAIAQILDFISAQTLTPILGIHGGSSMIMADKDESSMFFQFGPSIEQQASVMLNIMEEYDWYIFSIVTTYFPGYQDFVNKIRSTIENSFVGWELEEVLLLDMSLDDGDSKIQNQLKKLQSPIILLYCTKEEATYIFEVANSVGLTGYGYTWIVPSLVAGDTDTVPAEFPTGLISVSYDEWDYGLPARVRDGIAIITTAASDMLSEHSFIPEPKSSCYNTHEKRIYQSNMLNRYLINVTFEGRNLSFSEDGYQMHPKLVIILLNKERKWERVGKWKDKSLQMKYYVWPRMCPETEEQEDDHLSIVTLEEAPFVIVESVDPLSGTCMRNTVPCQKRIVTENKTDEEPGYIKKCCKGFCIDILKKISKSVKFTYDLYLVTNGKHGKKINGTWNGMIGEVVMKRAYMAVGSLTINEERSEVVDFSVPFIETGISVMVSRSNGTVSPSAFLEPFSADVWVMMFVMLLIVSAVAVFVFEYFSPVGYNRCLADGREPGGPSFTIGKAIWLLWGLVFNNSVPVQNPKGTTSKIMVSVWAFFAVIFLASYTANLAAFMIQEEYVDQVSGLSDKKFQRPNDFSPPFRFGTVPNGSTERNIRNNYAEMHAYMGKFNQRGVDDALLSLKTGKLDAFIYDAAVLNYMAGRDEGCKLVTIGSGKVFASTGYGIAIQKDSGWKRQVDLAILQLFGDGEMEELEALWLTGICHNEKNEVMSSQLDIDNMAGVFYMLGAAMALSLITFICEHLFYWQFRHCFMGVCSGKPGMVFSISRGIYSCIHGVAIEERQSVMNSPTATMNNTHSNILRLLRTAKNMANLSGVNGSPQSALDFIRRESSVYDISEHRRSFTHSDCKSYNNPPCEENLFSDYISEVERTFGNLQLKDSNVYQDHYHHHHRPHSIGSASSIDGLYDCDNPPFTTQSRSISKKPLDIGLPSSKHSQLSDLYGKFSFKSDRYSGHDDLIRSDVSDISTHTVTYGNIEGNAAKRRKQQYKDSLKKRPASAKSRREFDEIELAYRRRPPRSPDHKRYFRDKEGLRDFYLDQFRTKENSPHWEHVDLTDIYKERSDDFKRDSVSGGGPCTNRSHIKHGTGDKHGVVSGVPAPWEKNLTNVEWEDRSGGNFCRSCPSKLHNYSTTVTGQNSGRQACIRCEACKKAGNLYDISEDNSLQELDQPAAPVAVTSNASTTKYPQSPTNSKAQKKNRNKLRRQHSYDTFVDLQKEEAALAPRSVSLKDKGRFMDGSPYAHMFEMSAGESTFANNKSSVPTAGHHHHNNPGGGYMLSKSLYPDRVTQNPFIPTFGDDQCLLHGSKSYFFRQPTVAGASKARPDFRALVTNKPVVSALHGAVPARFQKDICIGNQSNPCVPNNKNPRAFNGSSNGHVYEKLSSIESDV
Procedure: as §1

nAChR(a4/b2) = nAChR(a4/b2) (Homo sapiens, UniProt P17787+P43681); test: Mini-profiling panel, ion channel; format: cell-based
nAChR(a4/b2), sequence (P43681 29-627 limits assumed): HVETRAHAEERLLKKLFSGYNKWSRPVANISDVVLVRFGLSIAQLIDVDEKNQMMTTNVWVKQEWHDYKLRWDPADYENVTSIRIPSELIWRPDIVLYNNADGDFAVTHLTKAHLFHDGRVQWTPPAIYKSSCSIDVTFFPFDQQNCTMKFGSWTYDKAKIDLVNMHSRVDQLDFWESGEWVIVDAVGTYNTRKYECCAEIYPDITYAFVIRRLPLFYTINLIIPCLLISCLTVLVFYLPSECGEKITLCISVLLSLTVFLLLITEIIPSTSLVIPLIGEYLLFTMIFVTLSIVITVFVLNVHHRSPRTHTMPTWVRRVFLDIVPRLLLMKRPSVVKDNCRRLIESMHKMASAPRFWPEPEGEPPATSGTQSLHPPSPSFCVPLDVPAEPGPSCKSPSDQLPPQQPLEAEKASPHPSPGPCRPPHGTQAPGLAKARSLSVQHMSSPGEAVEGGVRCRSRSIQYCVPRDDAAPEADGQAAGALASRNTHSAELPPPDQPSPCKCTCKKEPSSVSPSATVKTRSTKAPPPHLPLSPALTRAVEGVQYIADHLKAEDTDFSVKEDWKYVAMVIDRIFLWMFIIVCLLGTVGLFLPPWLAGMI
nAChR(a4/b2), sequence (P17787 26-502): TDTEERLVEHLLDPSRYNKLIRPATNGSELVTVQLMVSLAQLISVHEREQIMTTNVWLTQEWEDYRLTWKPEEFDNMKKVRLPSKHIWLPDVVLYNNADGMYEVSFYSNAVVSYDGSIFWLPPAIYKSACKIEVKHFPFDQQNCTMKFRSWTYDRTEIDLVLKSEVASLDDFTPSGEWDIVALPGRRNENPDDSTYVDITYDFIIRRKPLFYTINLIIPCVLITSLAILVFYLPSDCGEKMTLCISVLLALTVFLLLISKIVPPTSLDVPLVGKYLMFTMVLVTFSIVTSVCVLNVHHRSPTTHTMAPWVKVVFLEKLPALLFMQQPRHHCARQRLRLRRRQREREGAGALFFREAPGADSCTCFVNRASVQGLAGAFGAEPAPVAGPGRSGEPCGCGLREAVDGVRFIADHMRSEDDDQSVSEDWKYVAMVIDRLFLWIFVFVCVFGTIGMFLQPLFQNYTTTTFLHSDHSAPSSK
Procedure: as §1

NAV1.5 = NAV1.5 (Homo sapiens, UniProt Q14524); test: Mini-profiling panel, ion channel; format: cell-based
Procedure: as §1

HRH2 = HRH2 (Homo sapiens, UniProt P25021); test: Mini-profiling panel, GPCR; format: cell-based; conditions: GPCR Targets
HRH2, sequence (P25021 whole entry, species assumed): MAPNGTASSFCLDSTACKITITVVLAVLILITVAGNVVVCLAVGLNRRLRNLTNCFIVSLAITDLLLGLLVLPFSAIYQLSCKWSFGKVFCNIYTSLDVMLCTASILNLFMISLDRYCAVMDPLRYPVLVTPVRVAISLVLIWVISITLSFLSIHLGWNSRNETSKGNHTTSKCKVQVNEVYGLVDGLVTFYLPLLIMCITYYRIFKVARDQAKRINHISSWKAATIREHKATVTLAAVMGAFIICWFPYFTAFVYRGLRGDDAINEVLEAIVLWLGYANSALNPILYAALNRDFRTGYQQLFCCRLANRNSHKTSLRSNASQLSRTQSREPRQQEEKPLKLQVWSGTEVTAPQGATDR

[1] = Plasma bilirubin in mice after oral treatment; format: in vivo; conditions: SCR-7952 1.0 mg/kg, 14 days oral treatment, 2 h after final dose
AVPR1A = AVPR1A (Homo sapiens, UniProt P37288); test: Mini-profiling panel, GPCR; format: cell-based; conditions: GPCR Targets
ADORA2A = ADORA2A (Homo sapiens, UniProt P29274); test: Mini-profiling panel, GPCR; format: cell-based; conditions: GPCR Targets
ADORA2A, sequence (P29274 whole entry, species assumed): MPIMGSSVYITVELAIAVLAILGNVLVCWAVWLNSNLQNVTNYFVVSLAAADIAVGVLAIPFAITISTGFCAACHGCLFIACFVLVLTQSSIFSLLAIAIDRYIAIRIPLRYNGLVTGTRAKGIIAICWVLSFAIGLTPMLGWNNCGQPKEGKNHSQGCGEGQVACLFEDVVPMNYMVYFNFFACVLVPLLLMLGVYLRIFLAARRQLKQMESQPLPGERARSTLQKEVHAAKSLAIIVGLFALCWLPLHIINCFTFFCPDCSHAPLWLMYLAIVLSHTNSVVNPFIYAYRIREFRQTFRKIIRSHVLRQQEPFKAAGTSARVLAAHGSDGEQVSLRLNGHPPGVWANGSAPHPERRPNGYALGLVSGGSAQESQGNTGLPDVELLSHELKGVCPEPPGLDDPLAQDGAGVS

COX2 = COX2 (Homo sapiens, UniProt P35354); test: Mini-profiling panel, non-kinase enzyme; format: biochemical; conditions: Non-Kinase Enzymes; read-out: COX2 Inhibitor IC50
CAV1.2 = CAV1.2 (Homo sapiens, UniProt Q13936); test: cell-based
HCT116 MTAP−/− cells = test: Intracellular SAM inhibition assay; format: cell-based; conditions: Homo sapiens, HCT-116; HCT116 MTAP−/− cells, 6 h treatment; read-out: IC50, cellular SAM levels
Procedure: MAT2A inhibition in the cellular environment was monitored by measurement of the abundance of its product SAM in HCT116 MTAP ^−/− cells. HCT116 MTAP ^−/− cells were plated in 96‐well cell culture plates at 50,000 cells per well and allowed to attach overnight at 37°C in 5% CO2. Compounds were added in a dose–response format to generate a 10‐point dose–response curve. Doses were started at a 10 µM top concentration with 1:5 serial dilution. After 6 h of incubation, the medium was removed and cells were extracted with 50% methanol containing 1 M acetic acid for SAM metabolite measurement by UPLC‐MS/MS.
The standard SAM solution was prepared in a surrogate matrix of 50% methanol containing 1 M acetic acid with a concentration range of 3–1000 ng/mL. The quality control sample was prepared in the same surrogate matrix. SAM‐d 3 was used as the internal standard (IS). A Waters UPLC system coupled with a SCIEX Triple Quad™ 6500^+ mass spectrometer […] was used to analyze the samples. Samples were separated on an ACQUITY UPLC® BEH amide column (2.1 × 50 mm, 1.7 µm). The mobile phase consisted of 5% acetonitrile containing 5 mM NH4OAc and 1% (v/v) formic acid (A) and 95% acetonitrile containing 5 mM NH4OAc and 1% (v/v) formic acid (B). […] SAM and SAM‐d 3 were detected with multiple‐reaction monitoring of a mass transition pair at m/z 399.2/250.2 and […], respectively.

human UGT1A1 = human UGT1A1 (Homo sapiens, UniProt P22309); test: UGT1A1 biochemical assay
VEGFR2 = VEGFR2 (Homo sapiens, UniProt P35968); test: Mini-profiling panel, kinase; format: biochemical; conditions: Kinases; read-out: VEGFR2 Inhibitor IC50
MAT2A = target: T1, MAT2A (Homo sapiens, UniProt P31153); test: SPR binding, single-cycle kinetics
T1 construct: purchased Pharmaron 210405‐HWR‐20210429
T1 sequence (P31153 whole entry): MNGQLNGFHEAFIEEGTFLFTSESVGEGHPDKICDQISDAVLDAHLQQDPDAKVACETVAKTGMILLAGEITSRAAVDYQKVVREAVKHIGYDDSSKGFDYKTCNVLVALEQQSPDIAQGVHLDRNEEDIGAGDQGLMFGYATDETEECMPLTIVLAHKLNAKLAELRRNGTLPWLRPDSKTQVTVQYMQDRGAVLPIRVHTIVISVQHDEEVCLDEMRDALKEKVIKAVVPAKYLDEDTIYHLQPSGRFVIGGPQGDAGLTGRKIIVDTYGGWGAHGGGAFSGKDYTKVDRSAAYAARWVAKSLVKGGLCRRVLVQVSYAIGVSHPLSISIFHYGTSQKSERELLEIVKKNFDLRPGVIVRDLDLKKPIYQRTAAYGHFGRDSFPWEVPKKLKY
Procedure: SPR experiments were performed using a BIAcore 8K instrument (Cytiva) at 25°C. A series S sensor chip SA (Cytiva) was docked into the system in 20 mM Bicine‐Na, pH 7.5, 100 mM KCl, 5 mM MgCl2, 0.1 mM TCEP, 0.05% (w/w) Tween‐20, and 2% (v/v) DMSO. The MAT2A protein was captured by Penta‐anti‐His antibody, and the affinity of SCR‐7952 was tested over a suitable dose–response range (12.5–200 nM) by single‐cycle kinetics. The kinetic parameters of SCR‐7952 on MAT2A were fitted via a 1:1 binding model.

HTR3A, sequence (P46098 24-478, species assumed): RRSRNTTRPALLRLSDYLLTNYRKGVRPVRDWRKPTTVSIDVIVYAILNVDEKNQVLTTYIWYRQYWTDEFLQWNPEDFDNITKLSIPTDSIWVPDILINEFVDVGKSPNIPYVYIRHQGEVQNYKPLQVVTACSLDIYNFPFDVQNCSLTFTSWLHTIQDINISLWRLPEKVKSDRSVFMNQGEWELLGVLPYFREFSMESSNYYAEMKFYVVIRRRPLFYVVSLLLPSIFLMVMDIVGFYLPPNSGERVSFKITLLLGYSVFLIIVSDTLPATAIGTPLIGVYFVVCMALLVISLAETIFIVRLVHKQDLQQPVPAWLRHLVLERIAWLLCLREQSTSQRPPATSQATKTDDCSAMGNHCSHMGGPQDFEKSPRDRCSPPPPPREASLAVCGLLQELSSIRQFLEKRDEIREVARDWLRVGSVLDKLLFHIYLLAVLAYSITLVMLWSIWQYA

Cn1cnc2c(=O)n(-c3cccnc3C3CC3)c3cc(Cl)ccc3c21 [SCR‐7952, 7‐chloro‐5‐(2‐cyclopropylpyridin‐3‐yl)‐1‐methyl‐1,5‐dihydro‐4H‐imidazo[4,5‐c]quinolin‐4‐one]
> 100 µM: IC50 (human UGT1A1)
no significant effect: effect on mice plasma levels of bilirubin [1]
4.83e-05 s⁻¹: koff (MAT2A; single-cycle kinetic model, read-out: dissociation rate constant kd)
86700 M⁻¹ s⁻¹: kon (MAT2A; single-cycle kinetic model, read-out: association rate constant ka)
0.0019 µM: IC50 (HCT116 MTAP−/− cells)
0.00056 µM: Kd (MAT2A; read-out: dissociation equilibrium constant KD)
> 10 µM: IC50 (COX1) | IC50 (LCK) | EC50 (HTR3A) | IC50 (HTR3A) | EC50 (KvLQT1/mink) | IC50 (KvLQT1/mink) | EC50 (NMDAR (1A/2B)) | IC50 (NMDAR (1A/2B)) | EC50 (nAChR(a4/b2)) | IC50 (nAChR(a4/b2)) | IC50 (NAV1.5) | EC50 (HRH2; read-out: HRH2 Agonism EC50) | IC50 (HRH2; read-out: HRH2 Antagonism IC50) | EC50 (AVPR1A; read-out: AVPR1A Agonism EC50) | IC50 (AVPR1A; read-out: AVPR1A Antagonism IC50) | EC50 (ADORA2A; read-out: ADORA2A Agonism EC50) | IC50 (ADORA2A; read-out: ADORA2A Antagonism IC50) | IC50 (COX2) | IC50 (CAV1.2) | IC50 (VEGFR2)
